According to US20050014744A1, “Benzothiazine and benzothiadiazine compounds” (priority 2001, published 2005):
Where two headings read alike, the source gives them in different places.

Test system: AMPA receptors
Experiment: Excitatory fluxes induced by AMPA in Xenopus oocytes (2-electrode voltage-clamp)
Type: cell-based
Settings: Xenopus oocytes injected with rat cerebral cortex poly-(A+) mRNA, AMPA 10 μM, 20 to 24° C., OR2 medium
Procedure: Study of the Excitatory Fluxes Induced By AMPA in Xenopus oocytes
mRNAs are prepared from cerebral cortex of male Wistar rat by the guanidinium thiocyanate/phenol/chloroform method. The poly-(A^+) mRNAs are isolated by chromatography on oligo-dT cellulose and injected in an amount of 50 ng per oocyte. The oocytes are left to incubate for 2 to 3 days at 18° C. to allow expression of the receptors and are then stored at from 8 to 10° C.
Electrophysiological recording is carried out in a Plexiglass® chamber at from 20 to 24° C. in OR2 medium (J. Exp. Zool., 1973, 184, 321-334) by the 2-electrode “voltage-clamp” method, a 3rd electrode being placed in the bath to serve as reference.
All the compounds are administered via the incubation medium and the electric current is measured at the end of the period of administration. AMPA is used at a concentration of 10 μM. For each compound studied, the concentration that doubles (EC2X) or quintuples (EC5X) the intensity of the current induced by AMPA alone (5 to 50 nA) is determined.

## O=C(Oc1ccc2c(c1)S(=O)(=O)NCC2)c1ccccc1 [Example 2, 1,1-Dioxido-3,4-dihydro-2H-1,2-benzothiazin-7-yl Benzoate]
read-out: EC2X (concentration that doubles the intensity of the current induced by AMPA alone)
  Concentration that doubles (EC2X) or quintuples (EC5X) the AMPA-induced current: 11.9 µM
read-out: EC5X (concentration that quintuples the intensity of the current induced by AMPA alone)
  Concentration that doubles (EC2X) or quintuples (EC5X) the AMPA-induced current: 49.3 µM
